Like-named read-outs stand apart in the source and are kept apart here.
Tests used:
[1] = target: T1, MRP3 (Rattus norvegicus, UniProt O88563); experiment: Ussing chamber bidirectional transport, model validation for MRP3 (teniposide substrate, benzbromarone inhibitor); assay type: in vitro ADME; settings: jejunum and ileum, benzbromarone 470 μM, teniposide as substrate
T1 construct: intestinal segments including duodenum, jejunum, ileum, and colon from anesthetized rats were immediately removed by surgery; from tissue; host or cells: stripped rat intestine (jejunum and ileum in validation; jejunum for the emodin studies)
T1 sequence (O88563 whole entry): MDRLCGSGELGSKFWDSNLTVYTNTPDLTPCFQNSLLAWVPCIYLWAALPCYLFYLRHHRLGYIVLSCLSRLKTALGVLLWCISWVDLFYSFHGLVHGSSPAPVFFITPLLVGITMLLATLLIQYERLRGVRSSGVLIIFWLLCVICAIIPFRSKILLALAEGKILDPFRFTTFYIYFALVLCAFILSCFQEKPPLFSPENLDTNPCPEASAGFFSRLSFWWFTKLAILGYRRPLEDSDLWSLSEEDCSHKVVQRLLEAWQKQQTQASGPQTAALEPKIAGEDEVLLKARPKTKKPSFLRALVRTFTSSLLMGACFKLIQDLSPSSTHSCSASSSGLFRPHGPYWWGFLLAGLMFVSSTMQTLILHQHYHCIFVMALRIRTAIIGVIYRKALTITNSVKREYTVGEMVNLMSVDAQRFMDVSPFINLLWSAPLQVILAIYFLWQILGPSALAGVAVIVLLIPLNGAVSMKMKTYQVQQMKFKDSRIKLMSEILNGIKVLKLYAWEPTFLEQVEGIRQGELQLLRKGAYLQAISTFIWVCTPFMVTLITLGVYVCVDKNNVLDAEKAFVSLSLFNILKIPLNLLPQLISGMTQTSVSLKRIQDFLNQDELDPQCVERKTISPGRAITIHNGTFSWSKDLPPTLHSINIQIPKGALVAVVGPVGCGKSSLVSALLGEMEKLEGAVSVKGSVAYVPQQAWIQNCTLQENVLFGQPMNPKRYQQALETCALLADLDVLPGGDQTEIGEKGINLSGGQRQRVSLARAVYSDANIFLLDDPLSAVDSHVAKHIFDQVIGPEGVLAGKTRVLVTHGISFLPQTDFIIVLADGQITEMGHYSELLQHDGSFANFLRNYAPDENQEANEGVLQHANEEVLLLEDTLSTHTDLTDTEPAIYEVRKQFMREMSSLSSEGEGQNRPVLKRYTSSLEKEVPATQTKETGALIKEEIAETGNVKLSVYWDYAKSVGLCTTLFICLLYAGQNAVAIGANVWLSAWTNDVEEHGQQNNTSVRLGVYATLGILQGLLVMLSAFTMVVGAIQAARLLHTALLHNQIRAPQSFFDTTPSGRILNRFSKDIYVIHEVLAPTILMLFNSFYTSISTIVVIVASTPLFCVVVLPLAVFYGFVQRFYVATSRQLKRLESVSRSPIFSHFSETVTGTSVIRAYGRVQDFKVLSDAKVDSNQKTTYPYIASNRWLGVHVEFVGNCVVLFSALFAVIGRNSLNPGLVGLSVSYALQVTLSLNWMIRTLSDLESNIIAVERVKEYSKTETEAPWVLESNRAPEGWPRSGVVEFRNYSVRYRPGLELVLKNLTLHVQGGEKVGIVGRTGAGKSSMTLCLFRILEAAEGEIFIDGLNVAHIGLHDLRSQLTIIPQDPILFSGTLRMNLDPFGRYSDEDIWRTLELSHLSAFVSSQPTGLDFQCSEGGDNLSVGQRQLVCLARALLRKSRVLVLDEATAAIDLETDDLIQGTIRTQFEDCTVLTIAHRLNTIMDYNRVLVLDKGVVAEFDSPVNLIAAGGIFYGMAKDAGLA
From the text: (§1) The four intestinal segments including duodenum, jejunum, ileum, and colon from anesthetized rats were immediately removed by surgery and washed with KRB solution. Each section of the intestinal segments was then placed in cold (on ice), bubbled (O2:CO2 95:5) KRB buffer. The four intestinal segments were then cut into 2 cm pieces, respectively, and serosas were removed by blunt dissection. Peyer’s patches were excluded from the experiment by visually identified. The stripped tissues were mounted in chambers with exposed surface area of 0.49 cm^2. Temperature of the chambers was maintained at 37 ± 0.5°C. Each of the half-cells in the chambers was filled with 5 mL fresh KRB buffer (pH 6.5). Tissue viability was continuously controlled by potential difference (PD). Tissue with electrical values less than 2 mV was refused ([Moazed and Hiebert, 2007]; [Heinen et al., 2013]).
(§2) Digoxin, pravastatin, and teniposide were employed as the test substrates of P-gp, MRP2, and MRP3. […] The experiments were started after 30 min equilibration time, by changing the KRB buffer on both sides; 5 mL KRB solution with different test compounds was filled in the mucosal or serosal compartment; meanwhile, equal volume fresh buffer was added to the other compartment. […] The bidirectional transport studies with specific inhibitors were assessed to validate this model whether or not suitable for P-gp, MRP2, and MRP3 studies. Samples were stored at –80°C until analysis ([Deusser et al., 2013]).
(§3) Frozen samples were adequately vortexed after thawing at the room temperature; 10 μL suitable IS solution was added to 200 μL samples; 200 μL methanol was added after a thorough vortex mixing for 30 s. The mixtures were then vortexed for 30 s and centrifuged at 15,000 rpm for 30 min. Finally, 5 μL of supernatant was injected into the LC-MS/MS system.
(§4) The quantifications of the compounds were performed by the TSQ Quantum Ultra Triple Quadrupole LC-MS/MS system from Thermo Fisher Scientific. Chromatography was carried out using an Agilent Poroshell 120 SB-C18 (2.7 μm, 2.1 mm × 100 mm) column with a Phenomenex AFO-8497 C18 pre-column, operating at 30°C. Adaptive gradient elution methods were applied for the analytes. The flow rate of the mobile phase was kept at 0.2 mL min^-1. Flow was directed to the ion spray interface. All measurements were carried out in negative ESI mode. Ion spray voltage was -2500 V. Vaporizer and capillary temperatures were set at 250 and 350°C, respectively. Auto sampler temperature was set at 10°C. Sheath gas and aux gas were set at 30 and 15 Arb, respectively. […] Peak integrations and calibrations were carried out using LC Quan 2.5.2 software from Thermo Fisher Scientific.
(§5) The Q (accumulative quantity), Papp (apparent permeability), Er (efflux ratio), Pr (Papp ratio), and Err (Er ratio) across the excited rat intestinal segments in the Ussing chamber were calculated using the following equations ([Li et al., 2012]; [Huang et al., 2016]): […]
(§6) where Cn (nM) is the concentration of the drug at the time point (n), Q (nM) is the accumulated absorption amount, A is the exposed surface area of the intestine (0.49 cm^2), dQ/dt (nM⋅s^-1) is the amount of the drug transported, and C0 (nM) is the initial concentration of the test drug. Experiments were performed in batches, so control groups were set as one for each batch.

[2] = tested on: P-gp; experiment: Influence of emodin on P-gp function: digoxin bidirectional transport in the presence of emodin (Ussing chamber); assay type: in vitro ADME; settings: rat jejunum; for Papp at 25 μM: rat
From the text: as §1
In this study, the effects of the three efflux transporters on emodin intestinal absorption were investigated. Meanwhile, the influence of emodin on intestinal P-gp, MRP2, and MRP3 functions were also discussed. Solutions with three concentrations (low, middle, and high) of emodin were filled in the mucosal or serosal compartment to measure the bidirectional transport characteristic. […] In the emodin impact experiments, digoxin, pravastatin, and teniposide were employed as P-gp, MRP2, and MRP3 substrates. Changes of the bidirectional transport characteristic were measured before and after adding emodin to the mucosal side.
as §3, §4, §5, §6

[3] = tested on: P-gp; experiment: in vitro; settings: rat
Procedure: The quantifications of the compounds were performed by the TSQ Quantum Ultra Triple Quadrupole LC-MS/MS system from Thermo Fisher Scientific. […] Adaptive gradient elution methods were applied for the analytes. The flow rate of the mobile phase was kept at 0.2 mL min^-1. Flow was directed to the ion spray interface. All measurements were carried out in negative ESI mode. Ion spray voltage was -2500 V. Vaporizer and capillary temperatures were set at 250 and 350°C, respectively. Auto sampler temperature was set at 10°C. Sheath gas and aux gas were set at 30 and 15 Arb, respectively. […] Peak integrations and calibrations were carried out using LC Quan 2.5.2 software from Thermo Fisher Scientific.

[4] = target: MRP2 (Rattus norvegicus, UniProt Q63120); experiment: Ussing chamber bidirectional transport, model validation for MRP2 (pravastatin substrate, MK571 inhibitor); assay type: in vitro ADME; design: intestinal segments including duodenum, jejunum, ileum, and colon from anesthetized rats were immediately removed by surgery; from tissue; host or cells: stripped rat intestine (jejunum and ileum in validation; jejunum for the emodin studies); settings: jejunum and ileum, MK571 186 μM, pravastatin as substrate
Chain of MRP2 (Q63120 whole entry, the tested form may be a part): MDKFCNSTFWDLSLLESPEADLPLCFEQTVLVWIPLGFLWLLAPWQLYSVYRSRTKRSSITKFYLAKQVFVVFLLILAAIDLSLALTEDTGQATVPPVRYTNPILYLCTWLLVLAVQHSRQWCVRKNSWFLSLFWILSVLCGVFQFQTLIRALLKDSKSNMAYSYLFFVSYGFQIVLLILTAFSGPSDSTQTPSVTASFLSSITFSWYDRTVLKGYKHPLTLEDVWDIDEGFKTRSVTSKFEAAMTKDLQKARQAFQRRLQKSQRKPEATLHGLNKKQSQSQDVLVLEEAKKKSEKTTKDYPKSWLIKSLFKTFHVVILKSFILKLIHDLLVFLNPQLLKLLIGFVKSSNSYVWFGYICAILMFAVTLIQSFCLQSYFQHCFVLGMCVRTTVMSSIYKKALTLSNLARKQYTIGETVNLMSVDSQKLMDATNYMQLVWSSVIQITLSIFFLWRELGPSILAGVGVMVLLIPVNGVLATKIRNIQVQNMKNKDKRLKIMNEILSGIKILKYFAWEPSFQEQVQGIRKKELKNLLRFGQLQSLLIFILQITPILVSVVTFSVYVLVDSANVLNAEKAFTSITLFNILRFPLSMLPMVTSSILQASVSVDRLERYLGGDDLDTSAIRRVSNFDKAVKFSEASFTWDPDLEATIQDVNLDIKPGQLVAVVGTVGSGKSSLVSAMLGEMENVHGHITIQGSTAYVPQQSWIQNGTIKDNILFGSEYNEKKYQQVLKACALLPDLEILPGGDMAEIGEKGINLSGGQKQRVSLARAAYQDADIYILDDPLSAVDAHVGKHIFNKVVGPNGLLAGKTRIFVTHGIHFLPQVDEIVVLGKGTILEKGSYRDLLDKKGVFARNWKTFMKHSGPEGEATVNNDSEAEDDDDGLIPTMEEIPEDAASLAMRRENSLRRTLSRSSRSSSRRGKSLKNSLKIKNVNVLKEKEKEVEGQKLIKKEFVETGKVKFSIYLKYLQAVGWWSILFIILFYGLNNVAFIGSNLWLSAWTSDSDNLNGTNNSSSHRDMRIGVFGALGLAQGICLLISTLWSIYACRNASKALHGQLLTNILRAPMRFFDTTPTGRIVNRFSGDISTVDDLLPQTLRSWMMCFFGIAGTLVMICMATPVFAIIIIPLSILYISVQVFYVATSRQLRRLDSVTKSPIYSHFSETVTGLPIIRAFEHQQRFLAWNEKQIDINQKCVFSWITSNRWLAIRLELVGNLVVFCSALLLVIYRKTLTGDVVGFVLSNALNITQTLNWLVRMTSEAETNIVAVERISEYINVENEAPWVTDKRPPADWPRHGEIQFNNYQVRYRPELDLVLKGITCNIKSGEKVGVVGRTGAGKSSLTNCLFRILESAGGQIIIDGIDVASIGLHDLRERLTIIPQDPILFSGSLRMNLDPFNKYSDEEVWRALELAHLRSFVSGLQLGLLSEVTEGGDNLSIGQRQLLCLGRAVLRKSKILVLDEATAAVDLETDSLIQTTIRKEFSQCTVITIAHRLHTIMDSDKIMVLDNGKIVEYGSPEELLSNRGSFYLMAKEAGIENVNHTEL
From the text: as §1, with “(PD).” for “(PD). Tissue with electrical values less than 2 mV was refused ([Moazed and Hiebert, 2007]; [Heinen et al., 2013]).”
as §2, with “studies.” for “studies. Samples were stored at –80°C until analysis ([Deusser et al., 2013]).”
as §3
as §4, with “Chromatography was carried out using an Agilent Poroshell 120 SB-C18 (2.7 μm, 2.1 mm × 100 mm) column with a Phenomenex AFO-8497 C18 pre-column, operating at 30°C.” left out
as §6

CCc1oc2ccccc2c1C(=O)c1cc(Br)c(O)c(Br)c1 [Benzbromarone]
Inhibition effect on MRP3 [1]: significant inhibition effect

C[C@H]1O[C@@H](O[C@H]2[C@@H](O)C[C@H](O[C@H]3[C@@H](O)C[C@H](O[C@H]4CC[C@@]5(C)[C@H](CC[C@@H]6[C@@H]5C[C@@H](O)[C@]5(C)[C@@H](C7=CC(=O)OC7)CC[C@]65O)C4)O[C@@H]3C)O[C@@H]2C)C[C@H](O)[C@@H]1O [Digoxin]
Change of Er values of digoxin after adding emodin ([2]; digoxin 25 μM, emodin 185, 370, 740 μM): significant higher | Papp at 25 μM ([2]; pH 6.5, digoxin 25 μM, without emodin, read-out: Papp M-S, control): 91.6 ± 41 ×10⁻⁶ cm/s | Papp at 25 μM ([2]; pH 6.5, digoxin 25 μM, without emodin, read-out: Papp S-M, control): 152 ± 43.9 ×10⁻⁶ cm/s | Papp at 25 μM ([2]; pH 6.5, with emodin 185 μM on mucosal side, digoxin 25 μM, emodin 185 μM on mucosal side, read-out: Papp M-S in the presence of emodin): 55.8 ± 29.8 ×10⁻⁶ cm/s | Papp at 25 μM ([2]; pH 6.5, with emodin 185 μM on mucosal side, digoxin 25 μM, emodin 185 μM on mucosal side, read-out: Papp S-M in the presence of emodin): 257 ± 47.6 ×10⁻⁶ cm/s | Papp at 25 μM ([2]; pH 6.5, with emodin 370 μM on mucosal side, digoxin 25 μM, emodin 370 μM on mucosal side, read-out: Papp M-S in the presence of emodin): 49 ± 12.8 ×10⁻⁶ cm/s | Papp at 25 μM ([2]; pH 6.5, with emodin 370 μM on mucosal side, digoxin 25 μM, emodin 370 μM on mucosal side, read-out: Papp S-M in the presence of emodin): 461 ± 191 ×10⁻⁶ cm/s | Papp at 25 μM ([2]; pH 6.5, with emodin 740 μM on mucosal side, digoxin 25 μM, emodin 740 μM on mucosal side, read-out: Papp M-S in the presence of emodin): 20.4 ± 7.6 ×10⁻⁶ cm/s | Papp at 25 μM ([2]; pH 6.5, with emodin 740 μM on mucosal side, digoxin 25 μM, emodin 740 μM on mucosal side, read-out: Papp S-M in the presence of emodin): 142 ± 29.7 ×10⁻⁶ cm/s | Papp ([3]; pH 6.5, Papp M-S, control, rat colon, without inhibitor): 63.1 ± 33.1 ×10⁻⁶ cm/s | Papp ([3]; pH 6.5, Papp M-S, control, rat duodenum, without inhibitor): 72.5 ± 32.8 ×10⁻⁶ cm/s | Papp ([3]; pH 6.5, Papp M-S, control, rat ileum, without inhibitor): 43.1 ± 15 ×10⁻⁶ cm/s | Papp ([3]; pH 6.5, Papp M-S, control, rat jejunum, without inhibitor): 57.8 ± 11.2 ×10⁻⁶ cm/s | Papp ([3]; pH 6.5, Papp S-M, control, rat colon, without inhibitor): 137 ± 66.3 ×10⁻⁶ cm/s | Papp ([3]; pH 6.5, Papp S-M, control, rat duodenum, without inhibitor): 186 ± 144 ×10⁻⁶ cm/s | Papp ([3]; pH 6.5, Papp S-M, control, rat ileum, without inhibitor): 228 ± 136 ×10⁻⁶ cm/s | Papp ([3]; pH 6.5, Papp S-M, control, rat jejunum, without inhibitor): 270 ± 125 ×10⁻⁶ cm/s | Papp ([3]; pH 6.5, with verapamil 220 μM, mucosal side, Papp M-S, with inhibitor, rat duodenum, with verapamil 220 μM on mucosal side): 45.3 ± 23.2 ×10⁻⁶ cm/s | Papp ([3]; pH 6.5, with verapamil 220 μM, mucosal side, Papp M-S, with inhibitor, rat ileum, with verapamil 220 μM on mucosal side): 191 ± 90.5 ×10⁻⁶ cm/s | Papp ([3]; pH 6.5, with verapamil 220 μM, mucosal side, Papp M-S, with inhibitor, rat jejunum, with verapamil 220 μM on mucosal side): 119 ± 58.5 ×10⁻⁶ cm/s | Papp ([3]; pH 6.5, with verapamil 220 μM, mucosal side, Papp S-M, with inhibitor, rat duodenum, with verapamil 220 μM on mucosal side): 79.7 ± 32.2 ×10⁻⁶ cm/s | Papp ([3]; pH 6.5, with verapamil 220 μM, mucosal side, Papp S-M, with inhibitor, rat ileum, with verapamil 220 μM on mucosal side): 157 ± 108 ×10⁻⁶ cm/s | Papp ([3]; pH 6.5, with verapamil 220 μM, mucosal side, Papp S-M, with inhibitor, rat jejunum, with verapamil 220 μM on mucosal side): 96.4 ± 86.4 ×10⁻⁶ cm/s | Papp ([3]; pH 6.5, with verapamil 440 μM, mucosal side, Papp M-S, with inhibitor, rat colon, with verapamil 440 μM on mucosal side): 189 ± 34.3 ×10⁻⁶ cm/s | Papp ([3]; pH 6.5, with verapamil 440 μM, mucosal side, Papp S-M, with inhibitor, rat colon, with verapamil 440 μM on mucosal side): 191 ± 40.1 ×10⁻⁶ cm/s

CN(C)C(=O)CCSC(SCCC(=O)O)c1cccc(/C=C/c2ccc3ccc(Cl)cc3n2)c1 (stereo not drawn) [MK571]
Inhibition effect on MRP2 [4]: significant inhibition effect
